Here are results for 13 compounds from ChEMBL document CHEMBL1136071, “Synthesis and biological evaluation of hydroxamate-Based inhibitors of glutamate carboxypeptidase II” (Bioorg Med Chem Lett, 2003).

pIC50, pKi: −log10 of the molar value.

Bacterial leucyl aminopeptidase, sequence (Q01693 whole entry): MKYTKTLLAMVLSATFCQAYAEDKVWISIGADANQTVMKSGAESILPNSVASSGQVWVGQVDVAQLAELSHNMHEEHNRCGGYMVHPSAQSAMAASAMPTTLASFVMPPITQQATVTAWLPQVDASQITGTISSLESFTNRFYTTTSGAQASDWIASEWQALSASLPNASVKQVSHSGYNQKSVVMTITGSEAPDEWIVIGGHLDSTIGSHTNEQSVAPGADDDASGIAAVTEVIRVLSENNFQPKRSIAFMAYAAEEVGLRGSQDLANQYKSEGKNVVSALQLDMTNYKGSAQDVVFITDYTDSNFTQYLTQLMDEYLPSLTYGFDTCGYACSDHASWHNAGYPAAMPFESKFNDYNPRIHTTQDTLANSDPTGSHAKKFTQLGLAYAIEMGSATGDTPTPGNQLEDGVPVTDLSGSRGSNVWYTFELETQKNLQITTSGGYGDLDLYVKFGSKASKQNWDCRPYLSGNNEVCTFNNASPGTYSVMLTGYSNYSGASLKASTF

In one experiment the target is Glutamate carboxypeptidase 2 (Homo sapiens, UniProt Q04609). Briefly: Inhibition of Glutamate carboxypeptidase II.
Glutamate carboxypeptidase 2, sequence (Q04609 whole entry): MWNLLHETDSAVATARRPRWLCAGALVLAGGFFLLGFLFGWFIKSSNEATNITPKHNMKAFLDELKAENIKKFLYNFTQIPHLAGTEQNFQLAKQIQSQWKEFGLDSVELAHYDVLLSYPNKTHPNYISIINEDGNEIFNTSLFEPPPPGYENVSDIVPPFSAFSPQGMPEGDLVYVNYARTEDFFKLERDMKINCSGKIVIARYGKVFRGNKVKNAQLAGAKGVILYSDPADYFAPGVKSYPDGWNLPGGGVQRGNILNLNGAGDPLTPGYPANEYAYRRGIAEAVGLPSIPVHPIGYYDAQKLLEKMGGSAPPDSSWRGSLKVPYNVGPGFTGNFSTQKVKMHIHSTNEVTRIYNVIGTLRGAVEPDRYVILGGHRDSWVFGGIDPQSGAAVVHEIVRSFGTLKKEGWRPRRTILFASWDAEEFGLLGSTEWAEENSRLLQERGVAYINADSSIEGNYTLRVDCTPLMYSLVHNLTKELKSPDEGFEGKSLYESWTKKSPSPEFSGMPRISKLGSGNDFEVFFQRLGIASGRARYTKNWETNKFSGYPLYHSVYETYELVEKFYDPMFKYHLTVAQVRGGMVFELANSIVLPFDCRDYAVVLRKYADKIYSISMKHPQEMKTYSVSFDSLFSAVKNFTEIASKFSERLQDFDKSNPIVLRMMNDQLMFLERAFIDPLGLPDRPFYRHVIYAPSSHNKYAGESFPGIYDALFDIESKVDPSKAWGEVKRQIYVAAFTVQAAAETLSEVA
In turn, `CC(=O)N[C@H](CC(=O)O)C(=O)NO` showed a pIC50 of less than 4.00.

With `N[C@H](CC(=O)NO)C(=O)O`, the pIC50 is less than 4.00.

`O=C(O)CCC(CCCC(=O)NO)C(=O)O` (stereo not drawn) gave a pIC50 of 6.03.

Compound `O=C(O)CCC(=O)NO` showed a pIC50 of 4.37. Compared with the last compound, the pIC50 is 1.66 log units lower.

In turn, `O=C(O)CCC(CCC(=O)NO)C(=O)O` (stereo not drawn) showed a pIC50 of 5.92.

Take `N[C@@H](CC(=O)NO)C(=O)O`: the pIC50 is less than 4.00.

In the case of `O=C(O)CCC(CP(=O)(O)Cc1c(F)c(F)c(F)c(F)c1F)C(=O)O` (stereo not drawn), the pIC50 was 7.09.

Consider `O=C(O)CCC(CC(=O)NO)C(=O)O` (stereo not drawn), for which the pIC50 was 6.66.

Take `CC(=O)N[C@@H](CC(=O)O)C(=O)NO`: the pIC50 is less than 4.00.

In the case of `O=C(O)CCC(CC(=O)O)C(=O)O` (stereo not drawn), the pIC50 is 4.70.

`N[C@@H](CCC(=O)NO)C(=O)O` [GLUTAMINE HYDROXAMATE] had a pIC50 of less than 4.00.

The next experiment has as its target Bacterial leucyl aminopeptidase (Vibrio proteolyticus, UniProt Q01693). Briefly: Inhibition of metalloprotease from family M28, Aeromonas proteolytica aminopeptidase.
In turn, `CC(C)C[C@H](N)C(=O)NO` had a pKi of 6.46.

In turn, `CC(C)C[C@@H](N)C(=O)NO` showed a pKi of 8.70.
